Measurements as given in US20210214734A1, “METHODS FOR SELECTIVELY INHIBITING MOLECULAR CHAPERONE CLIENTS AND COMPOSITIONS FOR USE THEREOF” (Research Foundation for the State University of New York, priority 2020, published 2021).
Where no end group is shown, it is not given here. [ ]: non-standard residue; d: D form. Phe(4-F) = N[C@@H](Cc1ccc(F)cc1)C(=O)O

Assays:
c-Abl = c-Abl protein level by immunoblot in treated HEK293 cells; assay type: cell-based, human; conditions: 10 μM A01 or A02 with and without TAT, 36 hours
Method: (§1) Human embryonic kidney (HEK293) and 786-O cells were acquired from the American Type Culture Collection (ATCC). HEK293 cells were grown in Dulbecco's Modified Eagle Medium (DMEM, Millipore-Sigma) and 786-O cells were grown in Roswell Park Memorial Institute (RPMI-1640, Millipore-Sigma) medium supplemented with 10% fetal bovine serum (FBS, Millipore-Sigma) in a CellQ incubator (Panasonic Healthcare) at 37° C. in 5% CO2.
(§2) Cultured cells were seeded 24 h prior to treatment. […]
(§3) Protein extraction from mammalian cells was carried out using methods previously described. See Woodford et al., Cell Reports, 14, 872-884 (2016). For immunoprecipitation, protein lysates were incubated with Hsp90 antibody for 2 h followed by incubation with protein G agarose (Qiagen) for 2 h at 4° C. Immunopellets were washed 4 times with fresh lysis buffer (20 mM Tris (pH7.4), 100 mM NaCl, 1 mM MgCl2, 0.1% NP40, protease inhibitor cocktail (Roche), and PhosSTOP (Roche)) and eluted with 5× Laemmli buffer. Precipitated proteins were separated by SDS-PAGE and transferred to nitrocellulose membranes. Co-immunoprecipitated proteins were detected by immunoblotting with the indicated antibodies, diluted in 5% non-fat dry milk reconstituted in TBST.

Cdk4 = assay: Immunoblot of unrelated client Cdk4 in HEK293 cells; assay type: cell-based, human; conditions: 10 μM, 36 hours, selectivity control
Method: as §1, §2, §3

c-Src = assay: Immunoblot of unrelated client c-Src in HEK293 cells; assay type: cell-based, human; conditions: 10 μM, 36 hours, selectivity control
Method: as §1, §2, §3

c-Abl-Hsp90 interaction = assay: Hsp90 immunoprecipitation, c-Abl association in HEK293 cells; assay type: cell-based, human; conditions: 10 μM, 36 hours, IP of endogenous Hsp90
Method: as §1, §2, §3

[1] = biological target: Human Serum Albumin (HSA) (Homo sapiens, UniProt P02768); assay: 19F NMR control for non-specific binding to HSA; conditions: 40 mM A01, A02 with 10 mM HSA
Method: (§4) All the NMR experiments have been recorded at 298° K with a Bruker FT NMR Avance III 600-MHz spectrometer equipped with a 5-mm CryoProbe™ QCI^1H/^19F-^13C/^15N-D quadruple resonance, a shielded z-gradient coil, and the automatic sample handling system such as a SAMPLEJET™ brand sampling system with temperature control.
(§5) ^19F NMR experiments are a well-recognized approach to study the interaction between small molecules or peptides and proteins. […] This is due to the large dynamic range defined as the difference of the NMR measured response in the free and protein-bound states. ^19F R2 filter NMR experiments are among the most sensitive techniques for weak binding detection. See Dalvit et al., Journal of American Chemical Society, 125, 7696-7703 (2003). The transverse relaxation rate R2 is a very sensitive parameter for these studies, due to the large Chemical Shift Anisotropy (CSA) of ^19F nucleus and to the large exchange contribution See Dalvit et al., Journal of American Chemical Society, 125, 7696-7703 (2003); the compounds/peptides that interact with the receptor will show a broadening and intensity reduction in their ^19F NMR signal in presence of the protein
(§6) The 5 mM stock solution peptides were prepared in 100% in DMSOd6. Solubility and purity of the peptides in PBS buffer pH 7.4, 10% D2O (for the lock signal) were checked by ^19F and ^1H NMR spectroscopy. 1D ^19F NMR experiments were recorded with proton decoupling with the Waltz-16 scheme during the acquisition period with an acquisition time of 0.95 s, a relaxation delay of 30 s. whereas 1D version of the NOESY (nuclear Overhauser effect spectroscopy) pulse sequence with H2O signal presaturation, a mixing time of 10 ms and a relaxation delay of 30 s was used for ^1H NMR experiments.
(§7) For the binding studies R2 filter experiments were recorded with the Carr-Purcell-Meibom-Gill scheme with a time interval of 23.5 ms between the 180° pulses with a loop of 2, an acquisition time of 0.95 s a D1 of 5 s and a number of scans of 512. All the ^19F chemical shifts are referenced to the CFCl3 signal in water.

Akt = assay: Immunoblot of unrelated client Akt in HEK293 cells; assay type: cell-based, human; conditions: 10 μM, 36 hours, selectivity control
Method: as §1, §2, §3

Hsp90α-FLAG = Hsp90α-FLAG (Homo sapiens, UniProt P07900); assay: Biotinylated peptide streptavidin pulldown of Hsp90α; assay type: binding; conditions: for Hsp90 isoform specificity: Hsp90α vs Hsp90β, biotinylated peptide pulldown
Method: (§8) Total cell lysates prepared as described above were incubated with the indicated amounts of biotinylated peptide at 4° C. for 1 h. Streptavidin agarose beads (ThermoScientific) were added and incubated 1 additional hour with gentle rotation. Bound Hsp90 was detected by immunoblotting as described herein.

full length human Hsp90 = assay: 19F NMR R2 filter binding to Hsp90; set-up: 19F NMR signal change in presence of Hsp90 (binding): dose or concentration left out as unconfirmed; conditions: for binding to Hsp90 when A01 and A02 are mixed: 19F NMR, peptides mixed; for 19F NMR signal change in presence of Hsp90 (binding): 19F R2 filter, peptides tested individually, A01
Method: as §4, §5, §6, §7

Aha1-Hsp90 complex = assay: Hsp90 immunoprecipitation, Aha1-Hsp90 complex in HEK293 cells; assay type: cell-based, human; conditions: 10 μM, 36 hours
Method: as §1, §2, §3

Cdc37 = biological target: T1, Cdc37 (Homo sapiens, UniProt Q16543); assay: 19F NMR R2 filter binding to Cdc37; set-up: dose or concentration left out as unconfirmed
T1 sequence (Q16543 1-378): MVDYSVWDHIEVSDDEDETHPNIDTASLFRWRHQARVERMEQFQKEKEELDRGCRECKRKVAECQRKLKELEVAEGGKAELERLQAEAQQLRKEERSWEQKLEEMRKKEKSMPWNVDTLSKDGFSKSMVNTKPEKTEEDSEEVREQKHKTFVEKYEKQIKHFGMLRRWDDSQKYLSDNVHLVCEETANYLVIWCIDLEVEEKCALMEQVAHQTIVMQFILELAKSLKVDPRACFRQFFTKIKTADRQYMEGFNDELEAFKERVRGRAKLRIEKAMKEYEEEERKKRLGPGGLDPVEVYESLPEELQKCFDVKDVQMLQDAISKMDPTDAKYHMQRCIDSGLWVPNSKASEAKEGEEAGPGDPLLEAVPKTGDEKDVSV
Method: as §4, §5, §6, §7

786-O cells = assay: Apoptosis by cleaved caspase-3 immunoblot in 786-O cells; assay type: cell-based; conditions: 786-O clear cell renal cell carcinoma cell line
Method: as §1
Cultured cells were seeded 24 h prior to treatment. Peptides were added to cells at 50% confluency at the indicated concentrations and incubated for 24 h, followed by protein extraction as described below.
as §3

Aha1 = Aha1 (Homo sapiens, UniProt O95433); assay: 19F NMR R2 filter binding to Aha1; conditions: cAbl peptides at 10 mM
Chain of Aha1 (O95433 whole entry, species assumed): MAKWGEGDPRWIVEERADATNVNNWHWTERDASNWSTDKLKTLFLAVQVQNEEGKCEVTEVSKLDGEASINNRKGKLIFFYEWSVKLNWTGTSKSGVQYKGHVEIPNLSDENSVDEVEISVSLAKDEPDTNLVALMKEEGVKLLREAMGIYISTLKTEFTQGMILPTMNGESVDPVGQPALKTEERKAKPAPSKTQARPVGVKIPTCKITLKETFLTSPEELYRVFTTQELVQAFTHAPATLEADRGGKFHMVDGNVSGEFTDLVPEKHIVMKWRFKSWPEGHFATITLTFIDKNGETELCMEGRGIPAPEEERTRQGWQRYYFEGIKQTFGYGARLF
Method: as §4
^19F NMR experiments are a well-recognized approach to study the interaction between small molecules or peptides and proteins. […] This is due to the large dynamic range defined as the difference of the NMR measured response in the free and protein-bound states. ^19F R2 filter NMR experiments are among the most sensitive techniques for weak binding detection. […]
as §6, with “Solubility and purity of the peptides in PBS buffer pH 7.4, 10% D2O (for the lock signal) were checked by ^19F and ^1H NMR spectroscopy.” left out
For the binding studies R2 filter experiments were recorded with the Carr-Purcell-Meibom-Gill scheme with a time interval of 23.5 ms between the 180° pulses with a loop of 2, an acquisition time of 0.95 s a D1 of 5 s and a number of scans of 512. […]

Hsp90β-FLAG = Hsp90β-FLAG (Homo sapiens, UniProt P08238); assay: Biotinylated peptide streptavidin pulldown of Hsp90β; assay type: binding; conditions: lysate of HEK293 overexpressing Hsp90β-FLAG
Chain of Hsp90β-FLAG (P08238 whole entry): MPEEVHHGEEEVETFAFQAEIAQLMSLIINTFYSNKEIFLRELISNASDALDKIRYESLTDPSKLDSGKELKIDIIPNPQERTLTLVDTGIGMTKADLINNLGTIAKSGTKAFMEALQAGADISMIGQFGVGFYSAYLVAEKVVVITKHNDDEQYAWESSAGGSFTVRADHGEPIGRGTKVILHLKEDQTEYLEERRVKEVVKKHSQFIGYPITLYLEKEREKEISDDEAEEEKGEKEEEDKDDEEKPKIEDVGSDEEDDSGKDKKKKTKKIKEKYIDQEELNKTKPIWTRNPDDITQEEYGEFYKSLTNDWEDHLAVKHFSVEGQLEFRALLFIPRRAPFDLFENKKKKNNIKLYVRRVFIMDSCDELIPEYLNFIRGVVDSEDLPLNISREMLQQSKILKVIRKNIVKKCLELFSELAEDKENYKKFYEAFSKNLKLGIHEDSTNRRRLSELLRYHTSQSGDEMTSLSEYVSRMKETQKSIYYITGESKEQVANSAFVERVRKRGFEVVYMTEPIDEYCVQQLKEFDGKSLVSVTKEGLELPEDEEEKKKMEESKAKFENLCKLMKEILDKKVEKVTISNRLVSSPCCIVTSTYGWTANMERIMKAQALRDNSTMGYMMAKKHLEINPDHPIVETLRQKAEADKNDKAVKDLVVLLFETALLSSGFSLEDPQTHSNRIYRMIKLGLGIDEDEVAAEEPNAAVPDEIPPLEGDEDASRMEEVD
Method: as §8

| Substance | c-Abl protein levels (c-Abl) | Cdk4 stability or activity (Cdk4) | c-Src stability or activity (c-Src) | dissociation of c-Abl from Hsp90 (c-Abl-Hsp90 interaction) | binding interaction with HSA by 19F NMR [1] | binding interaction with HSA by 19F NMR ([1]; listed as AblO2) | Akt stability or activity (Akt) | Hsp90 isoform specificity (Hsp90α-FLAG) | binding to Hsp90 when A01 and A02 are mixed (full length human Hsp90) | 19F NMR signal change in presence of Hsp90 (binding) (full length human Hsp90) | Aha1-Hsp90 complex formation (Aha1-Hsp90 complex) | binding interaction with HSA by 19F NMR ([1]; listed as Braf02-pep) | binding to Cdc37 by 19F NMR (Cdc37) | apoptosis (elevation of cleaved caspase-3) (786-O cells) | binding interaction with HSA by 19F NMR ([1]; listed as Braf01-pep) | binding to Aha1 by 19F NMR (Aha1) | binding interaction with HSA by 19F NMR ([1]; listed as AblO1) | binding to Hsp90α in pulldown (Hsp90α-FLAG; biotinylated peptide, lysate of HEK293 overexpressing Hsp90α-FLAG) | binding to Hsp90β in pulldown (Hsp90β-FLAG) |
| --- | --- | --- | --- | --- | --- | --- | --- | --- | --- | --- | --- | --- | --- | --- | --- | --- | --- | --- | --- |
| F(F)GGSPYPGIDLSQVYELLEK ([Phe(4-F)]GGSPYPGIDLSQVYELLEK) [A02] | decrease of c-Abl protein levels | neither the related kinase c-Src nor the client kinases Cdk4 or Akt showed a defect in stability or activity | neither the related kinase c-Src nor the client kinases Cdk4 or Akt showed a defect in stability or activity | dissociation of c-Abl from Hsp90 | neither A01 nor A02 showed binding interaction with HSA | do not interact with HSA | neither the related kinase c-Src nor the client kinases Cdk4 or Akt showed a defect in stability or activity | neither peptide demonstrates isoform specificity | continue to bind to Hsp90 even when they are mixed | decrease in the presence of Hsp90, indicating peptide-protein binding | decreased Aha1-Hsp90 complex formation | – | – | – | – | – | – | – | – |
| FGTVYKGKWGGGGF(F)STKPQLAGGGNVTAPTPQ (FGTVYKGKWGGGG[Phe(4-F)]STKPQLAGGGNVTAPTPQ) [B-Raf-02] | – | – | – | – | no interactions were detected | – | – | – | – | no or very weak interaction | – | do not interact with HSA | bound to Cdc37 | – | – | – | – | – | – |
| GEMGKGGKGRVPYPGMVNREVLDQVERGF(F)RM (GEMGKGGKGRVPYPGMVNREVLDQVERG[Phe(4-F)]RM) [c-Src02, c-Src mimic peptide] | – | – | – | – | – | – | – | – | – | – | – | – | – | except c-Src02, induced apoptosis | – | – | – | – | – |
| GYSTKPQLAGGGNVTAPTPQGF(F)QHSGS (GYSTKPQLAGGGNVTAPTPQG[Phe(4-F)]QHSGS) [B-Raf-01] | – | – | – | – | no interactions were detected | – | – | – | – | no or very weak interaction | – | – | – | – | do not interact with HSA | – | – | – | – |
| LGGGQF(F)GEVYGGVAVKTLGGGEFLDEAAVMK (LGGGQ[Phe(4-F)]GEVYGGVAVKTLGGGEFLDEAAVMK) [A01, F(F) = 4-Fluoro-L-phenylalanine] | decrease of c-Abl protein levels | neither the related kinase c-Src nor the client kinases Cdk4 or Akt showed a defect in stability or activity | neither the related kinase c-Src nor the client kinases Cdk4 or Akt showed a defect in stability or activity | dissociation of c-Abl from Hsp90 | neither A01 nor A02 showed binding interaction with HSA | – | neither the related kinase c-Src nor the client kinases Cdk4 or Akt showed a defect in stability or activity | neither peptide demonstrates isoform specificity | continue to bind to Hsp90 even when they are mixed | decrease in the presence of Hsp90, indicating peptide-protein binding | decreased Aha1-Hsp90 complex formation | – | showed the ability to bind Cdc37 | – | – | but not Aha1 | do not interact with HSA | binds with higher affinity to both isoforms of Hsp90 | binds with higher affinity to both isoforms of Hsp90 |
